Converted amounts (≈) assume the structure as drawn.
Test: Solubility limit of paclitaxel in release buffer
Assay type: physicochemical
Details: PBS/2% Tween-80 release buffer, pH 7.4, aqueous with cosolvent or surfactant or cyclodextrin
Method: The in-vitro release of paclitaxel was conducted in 2 mL of PBS/% Tween 80 release buffer (pH 7.4) at 37° C. using 6 mm punch-outs (1 punch-out/well) in triplicate. At predetermined time-points 2 mL of buffer was removed and another 2 mL replaced with PBS/Tween 80 release buffer, maintaining sink conditions throughout the release. Withdrawn aliquots (or standards/dissolutions samples) were filtered through a 0.2 μm PTFE syringe filter directly into HPLC vials and immediately capped. Paclitaxel was quantified with an Agilent Series 1100 HPLC (Santa Clara, Calif., USA) equipped with UV/Vis detector, autosampler, and column heater set to 35° C. A ZORBAX Eclipse XDB-C18 (5 μm) column of acetonitrile/water 60/40 (v/v) served as the mobile buffer, eluting the paclitaxel peak at ˜5.4 minutes with a flow rate 1.0 mL/min and the UV/Vis detector recording at 227 nm. A total dissolution study of the 6 mm discs in triplicate was conducted by dissolving the films in acetone and diluting in release buffer to determine the surface concentration of paclitaxel (μg/mm^2).

solubility: 20 µg/mL (≈ 23.4 µM)
Compound: CC(=O)O[C@H]1C(=O)[C@@]2(C)[C@H]([C@H](OC(=O)c3ccccc3)[C@]3(O)C[C@H](OC(=O)[C@H](O)[C@@H](NC(=O)c4ccccc4)c4ccccc4)C(C)=C1C3(C)C)[C@]1(OC(C)=O)CO[C@@H]1C[C@@H]2O [paclitaxel]

Reference: patent US9801831B2, “Device for controlled release of a bioactive agent” (Nanyang Technological University, priority 2010, dated 2017)
